Values of other authors, collected in patent US20160129117A1, “Novel Boronic Acid Compound Preparation” (NIPPON KAYAKU KABUSHIKI KAISHA, priority 2013, published 2016).
Read-outs that look alike come from different tables or passages of the source.

Tests used:
[1] = in vivo

CC(C)C[C@H](NC(=O)[C@H](Cc1ccccc1)NC(=O)c1cnccn1)B(O)O [bortezomib]
incidence of grade 3 peripheral neuropathy (intravenous administration): 16% | incidence of grade 3 peripheral neuropathy (subcutaneous administration): 6% | total dose causing the peripheral nerve toxicity [1]: about 30 mg/m^2
